Results published in publication PMC11682371 (Scientific Reports, 2024).

Biological target: T1, recombinant human MAO-B (Homo sapiens, UniProt P27338)
T1 sequence (P27338 1-520): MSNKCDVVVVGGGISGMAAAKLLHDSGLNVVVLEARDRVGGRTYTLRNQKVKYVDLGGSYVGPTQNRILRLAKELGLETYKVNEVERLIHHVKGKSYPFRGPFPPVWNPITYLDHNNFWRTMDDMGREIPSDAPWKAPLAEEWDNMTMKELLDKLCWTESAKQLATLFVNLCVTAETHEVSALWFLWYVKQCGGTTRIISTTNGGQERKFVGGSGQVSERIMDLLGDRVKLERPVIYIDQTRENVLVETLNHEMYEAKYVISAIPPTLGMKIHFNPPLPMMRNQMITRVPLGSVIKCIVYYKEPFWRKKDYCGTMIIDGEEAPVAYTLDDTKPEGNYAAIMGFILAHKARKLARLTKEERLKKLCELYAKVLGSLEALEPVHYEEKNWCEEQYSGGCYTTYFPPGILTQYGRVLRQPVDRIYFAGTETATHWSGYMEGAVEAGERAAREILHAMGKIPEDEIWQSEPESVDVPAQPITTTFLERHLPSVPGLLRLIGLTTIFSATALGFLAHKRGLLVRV
Assay: Reversibility of MAO-B inhibition by dialysis
Format: biochemical
Conditions: dialysis experiment

C[C@H](NCc1ccc(OCc2cccc(F)c2)cc1)C(N)=O [Safinamide]
Reversibility of MAO-B inhibition: reversible
